From patent publication US10383861B2, “3-(1H-pyrrolo[2,3-C]pyridin-2-yl)-1H-pyrazolo[3,4-C]pyridines and therapeutic uses thereof” (Samumed, LLC, priority 2015, dated 2019)

What was measured:
Type in all cases: cell-based
SW480 colon cancer cells = test: Cell viability assay (CellTiter-Blue) in SW480 colon cancer cells; details: Homo sapiens; for EC50: 96 h, SW480 cell viability, four days, CellTiter-Blue; for inhibition at 10 µM: SW480, read-out: percent inhibition at 10 μM
Method in brief: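 Fluorescence from resazurin reduced to resorufin by metabolically active cells was the read-out, taken after ~3 h with CellTiter-Blue.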

[1] = tested on: primary human fibroblasts derived from IPF patients (LL29 cells); test: Inhibition of the fibrotic process: αSMA staining in TGF-β1 treated LL29 fibroblasts; details: Fibroblast; for EC50: 96 h, LL29 cells, TGF-β1 20 ng/mL, 4 days, % αSMA positive cells; for inhibition at 10 µM: read-out: percent inhibition at 10 μM
Method in brief: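 Read-out after 4-day incubation: αSMA staining with 1 μM SYTOX green nuclear counterstain (30 min, room temperature). Cells were LL29 primary fibroblasts from IPF patients, in 1% FBS F12, exposed to TGF-β1 with test compound, referenced to TGF-β1/DMSO control wells.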

Wnt activity = Wnt activity screening assay, Sp5-Luc reporter gene in SW480 cells; details: Homo sapiens; for inhibition at 10 µM: SW480, read-out: percent inhibition at 10 μM; for EC50: Sp5-Luc reporter, SW480 cells, overnight incubation
Method in brief: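 Read-out is BrightGlo luminescence, normalized to DMSO-treated cells and fitted by four-parameter variable-slope regression for EC50. Reporter cells: SW480 colon carcinoma carrying a stable lentiviral Sp5-Luc construct with eight TCF/LEF sites, seeded 4,000/well in 1% FBS, incubated overnight at 37° C.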

IL-6 = IL-6 inhibition in LPS-stimulated THP-1 cells (HTRF); details: Homo sapiens; for inhibition at 10 µM: THP-1, read-out: percent inhibition at 10 μM; for EC50: THP-1 cells, LPS 500 ng/mL, 22 hours, IL6 HTRF
Method in brief: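 After 24 h in 1% FBS medium, cells had compound 2 h before 500 ng/mL LPS, then 22 h more at 37 °C. DMSO-normalized HTRF signal (665/620 nm ratio, anti-IL-6 antibody pair) was fitted with a variable-slope four-parameter model to give EC50.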

[2] = tested on: primary human mesenchymal stem cells (hMSCs); test: Induction of chondrogenesis in hMSCs (nodule count, Rhodamine B/Nile Red); details: 6 days; for Emax: relative to TGF-β3 (10 ng/mL) positive control, read-out: Max. Activity as % TGF-β3 activity; for EC50: concentration required to induce 50% levels of chondrogenesis vs TGF-β3, read-out: Conc (nM) of 50% TGF-β3 activity
From the text: Representative compounds were screened using primary human mesenchymal stem cells (hMSCs) to determine their ability to induce chondrogenesis (process by which cartilage is developed).
Primary human mesenchymal stem cells (hMSCs) were purchased from Lonza (Walkersville, Md.) and expanded in Mesenchymal Stem Cell Growth Media (Lonza). Cells between passage 3 and 6 were used for the experiments.
To image chondrogenic nodules, the cells were fixed using 4% formaldehyde (Electron Microscopy Sciences), and stained with 2 μg/mL Rhodamine B (Sigma-Aldrich) and 20 μM Nile Red (Sigma-Aldrich) [Johnson K., et.al, A Stem Cell-Based Approach to Cartilage Repair, Science, (2012). […] Number of nodules in each well was normalized to the average of 3 DMSO treated wells on the same plate using Excel (Microsoft Inc.). The normalized averages (fold change over DMSO) of 3 replicate wells for each compound concentration were calculated. Due to solubility limitations of some of the compounds, curve fitting was incomplete leading to inaccurate EC50 determinations.
Using TGF-β3 as a positive control, the concentration of representative compounds required to induce 50% levels of chondrogenesis is reported. In addition, the maximum activity of each compound and the respective dose that each compound reached maximum chondrogenesis activity is reported.

Compound	EC50 (SW480 colon cancer cells) [µM]	inhibition at 10 µM (SW480 colon cancer cells) [%]	EC50 [1] [µM]	inhibition at 10 µM (Wnt activity) [%]	EC50 (Wnt activity) [µM]	inhibition at 10 µM (IL-6) [%]	EC50 (IL-6) [µM]	Emax [2] [%]	inhibition at 10 µM [1] [%]	EC50 [2] [nM]
CC(C)(C)C(=O)Nc1cncc(-c2cc3c(-c4cc5c(-c6ccncc6)cncc5[nH]4)n[nH]c3cn2)c1 [Compound 120, N-(5-(3-(4-(Pyridin-4-yl)-1H-pyrrolo[2,3-c]pyridin-2-yl)-1H-pyrazolo[3,4-c]pyridin-5-yl)pyridin-3-yl)pivalamide]	> 10	29	5.35	22	> 10	16.4	> 10	30		
CN(C)Cc1cncc(-c2cc3c(-c4cc5c(-c6ccncc6)cncc5[nH]4)n[nH]c3cn2)c1 [Compound 125, N,N-Dimethyl-1-(5-(3-(4-(pyridin-4-yl)-1H-pyrrolo[2,3-c]pyridin-2-yl)-1H-pyrazolo[3,4-c]pyridin-5-yl)pyridin-3-yl)methanamine]	> 10	5.3	> 10	18.7	> 10	0	> 10	52	2.9	30
Nc1cncc(-c2cc3c(-c4cc5c(N6CCCCC6)cncc5[nH]4)n[nH]c3cn2)c1 [Compound 171, 5-(3-(4-(Piperidin-1-yl)-1H-pyrrolo[2,3-c]pyridin-2-yl)-1H-pyrazolo[3,4-c]pyridin-5-yl)pyridin-3-amine]	5.1		2.64		2.96		1.35	94		30
CC(C)CC(=O)Nc1cncc(-c2cc3c(-c4cc5c(-c6cc(F)cc(CNS(C)(=O)=O)c6)cncc5[nH]4)n[nH]c3cn2)c1 [Compound 478, N-(5-(3-(4-(3-Fluoro-5-(methylsulfonamidomethyl)phenyl)-1H-pyrrolo[2,3-c]pyridin-2-yl)-1H-pyrazolo[3,4-c]pyridin-5-yl)pyridin-3-yl)-3-methylbutanamide]	> 10	4.1	> 10	18.8	> 10	18.9	> 10	24	37.6	
CC(C)Nc1cncc(-c2cc3c(-c4cc5c(-c6cc(F)cc(CNS(C)(=O)=O)c6)cncc5[nH]4)n[nH]c3cn2)c1 [Compound 488, N-(3-Fluoro-5-(2-(5-(5-(isopropylamino)pyridin-3-yl)-1H-pyrazolo[3,4-c]pyridin-3-yl)-1H-pyrrolo[2,3-c]pyridin-4-yl)benzyl)methanesulfonamide]	> 10	11	2.59		4.28	46.8	> 10	17		
CS(=O)(=O)NCc1cc(F)cc(-c2cncc3[nH]c(-c4n[nH]c5cnc(-c6cncc(CN7CCCC7)c6)cc45)cc23)c1 [Compound 490, N-(3-Fluoro-5-(2-(5-(5-(pyrrolidin-1-ylmethyl)pyridin-3-yl)-1H-pyrazolo[3,4-c]pyridin-3-yl)-1H-pyrrolo[2,3-c]pyridin-4-yl)benzyl)methanesulfonamide]	> 10	17.4	> 10	8.5	> 10	0	> 10	8	21.4	
CS(=O)(=O)NCc1cc(F)cc(-c2cncc3[nH]c(-c4n[nH]c5cnc(-c6cncc(NC(=O)C7CCC7)c6)cc45)cc23)c1 [Compound 497, N-(5-(3-(4-(3-Fluoro-5-(methylsulfonamidomethyl)phenyl)-1H-pyrrolo[2,3-c]pyridin-2-yl)-1H-pyrazolo[3,4-c]pyridin-5-yl)pyridin-3-yl)cyclobutanecarboxamide]	> 10	14.1	> 10	6.4	> 10	0	> 10	15	27.8	
